Substitutions are numbered along the chain they refer to.
Experiments:
[1] = target: T1, ALK2 (R206H) (Homo sapiens, UniProt Q04771, R206H); experiment: Kinase assay (33P-ATP filter-binding), ALK2 R206H; format: biochemical; conditions: R206H mutant, 20 mM; read-out: Kinase Selectivity ALK2 (R206H, 20 mM)
T1 sequence (Q04771 21-509 R206H): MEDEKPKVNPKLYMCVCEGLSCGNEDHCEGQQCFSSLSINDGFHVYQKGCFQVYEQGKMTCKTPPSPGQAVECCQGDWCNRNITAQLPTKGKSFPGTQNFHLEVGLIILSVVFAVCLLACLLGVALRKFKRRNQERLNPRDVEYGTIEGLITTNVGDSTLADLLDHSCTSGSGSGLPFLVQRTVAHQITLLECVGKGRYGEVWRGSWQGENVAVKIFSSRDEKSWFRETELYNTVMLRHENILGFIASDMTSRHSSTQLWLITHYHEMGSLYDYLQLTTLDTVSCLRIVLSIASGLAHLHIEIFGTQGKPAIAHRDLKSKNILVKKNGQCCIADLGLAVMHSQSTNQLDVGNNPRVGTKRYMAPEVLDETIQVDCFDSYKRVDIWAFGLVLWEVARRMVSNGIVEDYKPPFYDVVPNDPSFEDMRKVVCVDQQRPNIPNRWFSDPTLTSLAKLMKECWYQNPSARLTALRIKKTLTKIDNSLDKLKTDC
Method in brief: (§1)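 Kinase mixed into substrate in Hepes (pH 7.5)/MgCl2/EGTA/DTT buffer, 1% DMSO. Cpd acoustically dispensed, 20 min RT preinc. Start w/ 33P-ATP, 2 h RT, P81 spot, filter-binding.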

[2] = target: T2, ALK2 (Q207D) (Homo sapiens, UniProt Q04771, Q207D); experiment: Kinase assay (33P-ATP filter-binding), ALK2 Q207D; format: biochemical; conditions: Q207D mutant, 20 mM; read-out: Kinase Selectivity ALK2 (Q207D, 20 mM)
T2 sequence (Q04771 21-509 Q207D): T1 sequence (Q04771 21-509 R206H) with H186R, Q187D
Method in brief: as §1

[3] = target: AMPK; experiment: Kinase assay (33P-ATP filter-binding), AMPK; format: biochemical; conditions: read-out: Kinase Selectivity AMPK
Procedure: (§2) The kinase assays were carried out briefly as follows. Substrate was prepared in Base Reaction Buffer (20 mM Hepes (pH 7.5), 10 mM MgCl2, 1 mM EGTA, 0.02% Brij35, 0.02 mg/ml BSA, 0.1 mM Na3VO4, 2 mM DTT, 1% DMSO). The indicated kinases was delivered into the substrate solution and allowed to gently mix. Next, the specific compound was delivered in DMSO into the kinase mixture by Acoustic technology (Echo550; nanoliter range), and allowed to incubate for 20 minutes at room temperature. Next, ^33P-ATP was delivered into the reaction mixture to initiate the reaction and allowed to incubate at room temperature. After 2 hours, the reactions were spotted onto P81 ion exchange paper and the kinase activity is detected by the filter-binding method.

[4] = Protein binding, human; format: in vitro ADME
[5] = target: T3, ALK4 (Homo sapiens, UniProt P36896); experiment: Kinase assay (33P-ATP filter-binding), ALK4; format: biochemical; conditions: read-out: Kinase Selectivity ALK4
T3 sequence (P36896 24-505): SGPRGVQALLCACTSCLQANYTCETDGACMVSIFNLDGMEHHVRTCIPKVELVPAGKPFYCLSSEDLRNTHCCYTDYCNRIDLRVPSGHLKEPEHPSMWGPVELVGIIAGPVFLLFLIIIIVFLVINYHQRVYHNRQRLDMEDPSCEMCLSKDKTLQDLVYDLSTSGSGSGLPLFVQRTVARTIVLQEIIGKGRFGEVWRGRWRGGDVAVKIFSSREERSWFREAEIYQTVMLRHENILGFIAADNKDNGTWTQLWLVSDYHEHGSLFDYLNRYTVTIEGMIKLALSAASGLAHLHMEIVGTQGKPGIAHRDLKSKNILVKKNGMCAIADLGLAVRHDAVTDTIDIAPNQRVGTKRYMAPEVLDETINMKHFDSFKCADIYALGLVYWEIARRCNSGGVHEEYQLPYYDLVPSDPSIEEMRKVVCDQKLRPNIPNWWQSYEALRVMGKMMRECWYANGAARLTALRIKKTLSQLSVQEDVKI
Procedure: as §2

[6] = target: KDR (Homo sapiens, UniProt P35968); experiment: Kinase assay (33P-ATP filter-binding), KDR; format: biochemical; conditions: read-out: Kinase Selectivity KDR
Procedure: as §2

[7] = target: T4, ALK5 (Homo sapiens, UniProt P36897); experiment: Kinase assay (33P-ATP filter-binding), ALK5; format: biochemical; conditions: read-out: Kinase Selectivity ALK5
T4 sequence (P36897 34-503): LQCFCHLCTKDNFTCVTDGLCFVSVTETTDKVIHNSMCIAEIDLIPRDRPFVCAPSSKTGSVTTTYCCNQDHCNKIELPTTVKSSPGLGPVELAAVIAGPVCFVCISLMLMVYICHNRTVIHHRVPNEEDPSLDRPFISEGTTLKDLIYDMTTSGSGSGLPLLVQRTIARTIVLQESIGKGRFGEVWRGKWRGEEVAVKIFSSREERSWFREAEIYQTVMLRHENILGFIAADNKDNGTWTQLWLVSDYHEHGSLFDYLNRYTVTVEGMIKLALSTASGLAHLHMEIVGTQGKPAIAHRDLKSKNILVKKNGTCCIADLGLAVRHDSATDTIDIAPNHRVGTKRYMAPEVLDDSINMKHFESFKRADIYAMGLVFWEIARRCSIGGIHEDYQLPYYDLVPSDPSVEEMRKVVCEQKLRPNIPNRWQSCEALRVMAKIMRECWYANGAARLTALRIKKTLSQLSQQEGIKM
Procedure: as §2

[8] = test system: BMP-responsive C2C12 mouse myoblast cells stimulated with BMP4; experiment: BMP4 cell assay (Id1 promoter-firefly luciferase reporter); format: cell-based; conditions: Mus musculus; C2C12 cells, BMP4 50 ng/mL, overnight

Chain of KDR (P35968 20-1356, species assumed): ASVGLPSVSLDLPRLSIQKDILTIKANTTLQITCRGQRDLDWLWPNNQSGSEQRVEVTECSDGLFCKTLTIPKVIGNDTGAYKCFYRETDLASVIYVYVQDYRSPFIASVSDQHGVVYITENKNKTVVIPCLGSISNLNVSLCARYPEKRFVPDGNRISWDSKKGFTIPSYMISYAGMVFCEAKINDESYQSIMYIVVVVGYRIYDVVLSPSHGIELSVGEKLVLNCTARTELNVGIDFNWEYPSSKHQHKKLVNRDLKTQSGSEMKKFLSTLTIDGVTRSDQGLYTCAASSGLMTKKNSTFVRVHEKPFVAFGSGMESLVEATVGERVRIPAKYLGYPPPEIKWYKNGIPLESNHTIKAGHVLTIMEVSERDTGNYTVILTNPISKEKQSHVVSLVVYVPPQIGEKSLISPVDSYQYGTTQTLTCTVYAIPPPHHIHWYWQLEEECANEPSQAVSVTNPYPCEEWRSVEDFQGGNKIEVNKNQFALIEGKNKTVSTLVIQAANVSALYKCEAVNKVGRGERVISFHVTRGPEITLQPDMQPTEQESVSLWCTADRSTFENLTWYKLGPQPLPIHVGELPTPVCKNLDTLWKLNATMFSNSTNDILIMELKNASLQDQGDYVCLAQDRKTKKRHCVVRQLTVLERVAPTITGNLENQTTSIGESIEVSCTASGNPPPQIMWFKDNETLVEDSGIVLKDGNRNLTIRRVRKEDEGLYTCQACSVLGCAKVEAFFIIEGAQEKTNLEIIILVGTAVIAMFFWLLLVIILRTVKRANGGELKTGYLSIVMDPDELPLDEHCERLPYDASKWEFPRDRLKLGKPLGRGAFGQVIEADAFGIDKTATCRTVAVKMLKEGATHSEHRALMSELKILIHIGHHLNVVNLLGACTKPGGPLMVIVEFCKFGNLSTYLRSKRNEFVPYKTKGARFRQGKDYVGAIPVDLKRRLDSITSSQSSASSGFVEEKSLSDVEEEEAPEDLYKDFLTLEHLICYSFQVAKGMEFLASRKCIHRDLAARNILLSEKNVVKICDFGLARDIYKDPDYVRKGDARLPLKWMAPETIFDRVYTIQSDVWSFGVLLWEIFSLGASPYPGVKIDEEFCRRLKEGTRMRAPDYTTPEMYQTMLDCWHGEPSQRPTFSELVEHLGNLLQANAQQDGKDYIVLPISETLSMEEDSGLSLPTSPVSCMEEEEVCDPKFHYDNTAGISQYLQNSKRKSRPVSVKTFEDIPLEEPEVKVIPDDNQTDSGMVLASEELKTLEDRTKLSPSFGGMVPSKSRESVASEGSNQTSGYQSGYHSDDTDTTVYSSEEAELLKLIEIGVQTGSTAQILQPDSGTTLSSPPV

IC50 [1] [nM] | IC50 [2] [nM] | IC50 [3] [nM] | Protein Binding (% Free) Human [4] [% Free] | IC50 [5] [nM] | IC50 [6] [nM] | IC50 [7] [nM] | IC50 [8] [nM] | Compound
< 5.1 | 6.3 | 39100 | 5.61 | 775 | 39300 | 1140 | 87.7 | Cc1cc(-c2cnc3cc(-c4ccc(C5COC6(CCNCC6)CN5)cc4)ccn23)c2cc(F)cc(F)c2n1 (stereo not drawn) [Compound 16]
< 5.1 | < 5.1 | > 100000 | 1.11 | 164 | 47400 | 354 | – | Cc1cc(-c2cnc3cc(-c4ccc(C5COCC(C)N5)cc4)ccn23)c2cc(F)cc(F)c2n1 (stereo not drawn) [Compound 23]
326 | 219 | 18900 | 4.97 | 2030 | > 100000 | 3290 | 248 | Cc1cc(-c2cnc3cc(-c4ccc(C5COC6(CCNC6)CN5)cc4)ccn23)c2cc(F)cc(F)c2n1 (stereo not drawn) [Compound 27]
15.8 | < 5.1 | 20000 | 42.8 | 192 | 9350 | 310 | 13.5 | c1cnc2nccc(-c3cnc4cc(-c5ccc(C6CNCCN6)cc5)ccn34)c2c1 (stereo not drawn) [Compound 32]
< 5.1 | < 5.1 | 39100 | 11 | 775 | 39300 | 1140 | 87.7 | c1cc(-c2cnc3cc(-c4ccc(C5CNCCN5)cc4)ccn23)c2cccnc2c1 (stereo not drawn) [Compound 33]
< 5.1 | < 5.1 | 11500 | – | 390 | 36900 | 717 | 29.6 | O=C1CNC(=O)C(c2ccc(-c3ccn4c(-c5cccc6ncccc56)cnc4c3)cc2)N1 (stereo not drawn) [Compound 36]
13.2 | 5.8 | 9320 | 11.7 | 386 | 31400 | 456 | 34.9 | NS(=O)(=O)c1ccc(-c2cnc3cc(-c4ccc(C5CNCCN5)cc4)ccn23)c2ccccc12 (stereo not drawn) [Compound 37]
